Where two headings read alike, the source gives them in different places.
Assays:
human melanoma cells [1] = assay: Vitality test with Trypanblue; details: cells of the migration assay
WM-115 cells = assay: Wound healing assay (cell migration); assay type: cell-based, human; parameters: key to inhibit the cell migration of WM-115 cells: (-) means that the cell migration was not inhibited and that the wound healed; (+) means a slight inhibition, which slows the trend to heal; (++) means that the cell migration was inhibited, since only some cells were visible in the wound; (+++) means the absolute inhibition of cell migration; details: for concentration at which the migration of human melanoma cells is inhibited: summary of Table 1
Method: The compounds of the present invention were analyzed by means of a migration-assay, called "wound healing assay", that determines the inhibition-rate of the compounds on human melanoma cell line migration. Another migration assay, the so-called the Oris™ cell migration assay, is also applicable to examine the cell migration inhibitory effects of the compounds of the present invention. The used melanoma cells lines were WM-115 and WM-266-4, which are accepted in-vitro model cell systems. The human cell line WM-115 is derived from the primary tumor of a vertical growth phase (VGP) melanoma, whereas the cell line WM-266-4 is derived from the corresponding cutaneous metastasis. The "wound healing assay" is applicable to examine the cell migration inhibitory effects of the compounds of the present invention, which is described in further detail in the Examples. Furthermore, the "wound healing assay" is based on the fact that when wounded or scratched, cell monolayers respond to the disruption of cell-cell contacts and an increased concentration of growth factors at the wound margin by healing the wound through a combination of proliferation and migration, according to Yarrow, J.C., et al., BMC Biotechnol., 2004: 4, 21-29. In order to investigate the cell migration an intact cell monolayer is wounded with a pipette tip.
The wound healing assay has been carried out according to description as disclosed in Yarrow, J.C., et al., BMC Biotechnol., 2004: 4, 21-29. For carrying out the wound healing assay, 2 x 10^5 cells were grown in one well of a 12-well-plate under cell culture specific conditions for 24 h. After 24 h, a wound has been scratched in the confluently grown cell monolayer with a 100 µl pipette-tip. Detached cells were removed by washing with serum-free medium and new media with the respective compounds to be tested were supplemented with varying amounts. The cells were incubated under cell culture specific conditions and always the same section was photographed after 2, 4, 8 and 24 under the phase contrast microscope. The untreated cells healed the wound through a combination of proliferation and migration after 24 h.
The following table (Table 1) is a summary of the results obtained by carrying out the above described wound healing assay with varying amounts of compounds of the present invention to inhibit the cell migration of WM-115 cells, wherein (-) means that the cell migration was not inhibited and that the wound healed, (+) means a slight inhibition, which slows the trend to heal, (++) means that the cell migration was inhibited, since only some cells were visible in the wound, and (+++) means the absolute inhibition of cell migration. The abbreviation "n.d." means "not determined".

WM-266-4 cells [2] = assay: Adhesion assay with WM-266-4 cells on fibronectin; assay type: cell-based, human
Method: Microtiter plates with 96 wells were coated with 0.5 µg of fibronectin in 50 µl over night at 4° C and blocked with 200 µl adhesion buffer (1% BSA in PBS without Ca^2+/Mg^2+). WM-266-4 cells were pre-incubated with the test compounds at the respective concentrations in serum free medium for 60 min in a shaker (600 rpm) at 37° C. Afterwards, 4 x 10^4 cells in 100 µl were withdrawn and added into each well and incubated for 1 h at 37° C. Medium and non-adherent cells were aspirated and adherent cells were fixed in 4% formalin in PBS. The plates were washed with 0.01 M borate buffer (Stock-solution: 20 mM boric acid, 100 mM sodium tetraborate; pH 8.5; working solution: 0.01 M dilution in H2O) and 50 µl of 0.01 % methylene blue in borate buffer were added, wherein the cells were stained for 10 min at room temperature. The plates were extensively washed with water and air-dried. The air-dried plates were incubated for 45 min with 200 µl/well extraction buffer (a mixture of 0.1 N HCl and absolute EtOH (1:1, vol/vol)), wherein the adherent cells were quantified in an ELISA-reader, which read the extinction at 651 nm.
The human melanoma cells adhered to the fibronectin coated cell culture dishes. This adhesion is a prerequisite for growth of circulating cells such as occurs when these metastasize to sites distant from the tumor. The compounds described herein can inhibit such adhesion to the extracellular matrix protein fibronection or laminin to various degrees.

human melanoma cells [3] = test system: human melanoma cells
WM-266-4 cells [4] = details: WM-266-4, at 5 mM; cited from earlier work
murine B16F10 cells = details: cited from earlier work
human WM-115 cells = details: cited from earlier work
WM-115 [5] = details: WM-115, 5 mM; cited from earlier work
WM-266-4 = details: WM-266-4, 2.5 mM; cited from earlier work
WM-115 [6] = details: WM-115, at 5 mM; cited from earlier work
[7] = test system: matrix-metalloproteinase-2 (MMP-2); details: cited from earlier work
HBMEC-60 cells = assay: Adhesion assay with HBMEC cells (TNF-α stimulated) on laminin; assay type: cell-based, human
Method: Microtiter plates with 96 wells coated with the extracellular matrix component type I collagen, fibronenctin or laminin were used. HBMEC-60 cells which had been pre-incubated with the tumor necrosis factor (TNF-α, 40 ng/ml) for 24 hrs were incubated with the test compounds at the respective concentrations in serum free medium for endothelial cells (Promozell, Heidelberg, Germany) without growth factors for 30 min in 1.5 mL microfuge tubes (Eppendorf, Hamburg, Germany). Afterwards, 4 x 10^4 HBMEC-60 cells in 100 µl were withdrawn and added into each well. The plates were incubated at 37° C for 30 min and subsequently washed twice with PBS (with CaCl2 und MgSO4). Then, the adherent cells were fixed, washed and stained with methylene blue, the dye released and the extinction read as described above for the experiments with the melanoma cells.
Adhesion of endothelial cells to extracellular matrix proteins like laminin is a prerequisite for angiogenesis.

OC[C@H]1O[C@@H](OCc2cocc2CF)[C@H](O)[C@@H](O)[C@H]1O [GFF, 3-(β-D-galactopyranosyl-oxymethyl)-4-(fluoro-methyl)-furan]
vitality test with Trypanblue (human melanoma cells [1]): cells were intact | inhibit the cell migration of WM-115 cells (WM-115 cells; Concentration 1 mM): + | inhibit the cell migration of WM-115 cells (WM-115 cells; Concentration 2.5 mM): +++ | inhibit the cell migration of WM-115 cells (WM-115 cells; Concentration 5mM): +++ | inhibition at 100 µM (WM-266-4 cells [2]; Homo sapiens, WM 266-4, concentration of 0.1 mM): 34% | inhibition at 5000 µM (WM-266-4 cells [2]; Homo sapiens, WM 266-4, concentration of 5 mM): 62%

O=S(=O)(O)OCc1cocc1CO[C@@H]1O[C@H](CO)[C@@H](O)[C@H](O)[C@H]1O [GluSF, 3-(β-D-glucopyranosyl-oxymethyl)-4-(sulfatomethyl)-furan]
inhibit the cell migration of WM-115 cells (WM-115 cells; Concentration 0.1 mM): - | inhibit the cell migration of WM-115 cells (WM-115 cells; Concentration 1 mM): + | inhibit the cell migration of WM-115 cells (WM-115 cells; Concentration 2.5 mM): + | inhibit the cell migration of WM-115 cells (WM-115 cells; Concentration 5mM): +++ | concentration at which the migration of human melanoma cells is inhibited (WM-115 cells): 1 mM | vitality test with Trypanblue (human melanoma cells [3]): cells were intact | inhibition of the adhesion of WM-266-4 cells to fibronectin (WM-266-4 cells [2]; concentration of 5 mM): 79%

O=S(=O)(O)OCc1cocc1CO[C@@H]1O[C@H](CO)[C@H](O)[C@H](O)[C@H]1O [GSF, 3-β-D-galactopyranosyl-oxymethyl-4-sulfato-methyl-furan]
inhibit the cell migration of WM-115 cells (WM-115 cells; Concentration 0.1 mM): - | inhibit the cell migration of WM-115 cells (WM-115 cells; Concentration 1 mM): - | inhibit the cell migration of WM-115 cells (WM-115 cells; Concentration 2.5 mM): + | inhibit the cell migration of WM-115 cells (WM-115 cells; Concentration 5mM): +++ | concentration at which the migration of human melanoma cells is inhibited (WM-115 cells): greater than or equal to 2.5 mM | inhibition of migration (WM-266-4 cells [4]): inhibited | inhibition of adhesion to fibrinogen (murine B16F10 cells; at 20 mM or rather 10 mM): completely inhibits | inhibition of adhesion to fibronectin (murine B16F10 cells; at 40 mM): completely inhibits | inhibition of adhesion to fibrinogen (human WM-115 cells; at 20 mM or rather 10 mM): completely inhibits | inhibition of adhesion to fibronectin (human WM-115 cells; at 40 mM): completely inhibits | inhibition of cell migration into a wound (WM-115 [5]): no detectable migration | inhibition of the adhesion of WM-266-4 cells to fibronectin (WM-266-4 cells [2]; concentration of 0.1 mM): 8% | inhibition of the adhesion of WM-266-4 cells to fibronectin (WM-266-4 cells [2]; concentration of 5 mM): 26% | inhibition of cell migration into a wound (WM-266-4): no detectable migration | inhibition of migration (WM-115 [6]): inhibited | activation of the matrix-metalloproteinase-2 (MMP-2) [7]: decreased

O=S(=O)(O)OCc1cocc1CO[C@@H]1O[C@H](COS(=O)(=O)O)[C@H](O)[C@H](O)[C@H]1O [GSSF, 3-(6-sulfato-β-D-galactopyranosyl-oxymethyl)-4-(sulfatomethyl)-furan]
inhibit the cell migration of WM-115 cells (WM-115 cells; Concentration 0.1 mM): ++ | inhibit the cell migration of WM-115 cells (WM-115 cells; Concentration 1 mM): ++ | inhibit the cell migration of WM-115 cells (WM-115 cells; Concentration 2.5 mM): +++ | inhibit the cell migration of WM-115 cells (WM-115 cells; Concentration 5mM): +++ | concentration at which the migration of human melanoma cells is inhibited (WM-115 cells): 0.1 mM | inhibition of HBMEC-60 cell adhesion to laminin (HBMEC-60 cells; 10 mM, compared with 10 mM GSF): better inhibitor | inhibition of endothelial cell adhesion to laminin (HBMEC-60 cells; concentrations of 0.1, 0.5, 1 and 5 mM): significantly inhibited | vitality test with Trypanblue (human melanoma cells [3]): cells were intact

Source: EP2474552A1, “New saccharide mimics and their use as inhibitors of angiogenesis and metastasis formation” (Deutsches Krebsforschungszentrum, priority 2011, dated 2012)
